{"source": "patent US11247970B2", "about": "“Selective inhibition of gluconeogenic activity” (Dana-Farber Cancer Institute, Inc., priority 2017, dated 2022)", "key": {"GCN5": {"target": "T1, GCN5 (Homo sapiens, UniProt Q92830)", "T1 construct": "made in house; host or cells: U-2 OS cells overexpressing Ad-GCN5; FLAG immunoprecipitation, elution with 3×FLAG peptide", "T1 sequence (Q92830 whole entry, species assumed)": "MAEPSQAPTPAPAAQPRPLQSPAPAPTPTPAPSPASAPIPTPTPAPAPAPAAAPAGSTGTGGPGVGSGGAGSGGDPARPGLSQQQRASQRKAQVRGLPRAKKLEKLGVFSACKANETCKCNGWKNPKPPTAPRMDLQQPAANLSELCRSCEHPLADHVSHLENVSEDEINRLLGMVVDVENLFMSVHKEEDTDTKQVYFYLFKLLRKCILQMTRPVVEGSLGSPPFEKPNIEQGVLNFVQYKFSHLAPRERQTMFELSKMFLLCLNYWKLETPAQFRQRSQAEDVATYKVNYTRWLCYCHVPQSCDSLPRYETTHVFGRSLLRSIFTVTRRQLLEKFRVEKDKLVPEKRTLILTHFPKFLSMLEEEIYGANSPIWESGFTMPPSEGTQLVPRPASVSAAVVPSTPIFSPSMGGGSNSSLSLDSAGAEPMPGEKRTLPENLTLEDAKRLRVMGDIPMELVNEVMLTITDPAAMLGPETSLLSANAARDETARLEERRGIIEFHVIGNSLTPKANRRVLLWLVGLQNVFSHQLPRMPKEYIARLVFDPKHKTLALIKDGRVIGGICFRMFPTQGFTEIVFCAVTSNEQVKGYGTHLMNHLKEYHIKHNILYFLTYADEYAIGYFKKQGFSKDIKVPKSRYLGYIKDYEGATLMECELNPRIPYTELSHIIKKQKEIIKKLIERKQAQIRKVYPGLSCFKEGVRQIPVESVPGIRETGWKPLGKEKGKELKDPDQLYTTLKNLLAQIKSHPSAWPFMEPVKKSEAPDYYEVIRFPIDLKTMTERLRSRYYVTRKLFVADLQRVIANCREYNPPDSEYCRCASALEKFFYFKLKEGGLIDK", "test": "GCN5 HAT activity assay", "type": "biochemical", "details": "H3 peptide", "procedure": "For determination of GCN5 HAT activity U-2 OS cells overexpressing Ad-GCN5 were treated with SR-18292 ([…]) for 18 h. Cells were lysed with buffer B (20 mM HEPES-KOH (pH 7.9), 125 mM NaCl, 1 mM EDTA, 1 mM DTT, 1% IGEPAL (v/v), 10% glycerol (v/v), 5 mM NaF, 5 mM β-glycerophosphate, 5 mM sodium butyrate and 10 mM nicotinamide), supplemented with Protease Inhibitor Cocktail. FLAG-GCN5 was immunoprecipitated with FLAG beads overnight at 4° C. following multiple washes with lysis buffer. GCN5 was then eluted using 3×FLAG peptide and the purified protein was used to determine HAT activity using the HAT Inhibitor Screening Assay Kit (Cayman Chemicals) per manufacturer instructions. To determine the potential effect of SR-18292 on GCN5 activity in vitro, GCN5 was purified from U-2 OS cells in a similar manner but without treatment with SR-18292."}, "primary hepatocytes": {"tested_on": "primary hepatocytes", "test": "Cytotoxicity determination in primary hepatocytes (Toxilight, MTT, total protein)", "type": "cell-based, mouse", "procedure": "For cell viability determination using MTT, primary hepatocytes were seeded on a 96-well plate at 20,000 cells/well. The following day cells were treated at different doses, as indicated, for 18 h following similar protocol described above for drug treatment of primary hepatocytes. […] of MTT reagent (5 mg/ml) was then added to each well (n=4/dose) and cells were incubated for 1 h at 37° C. Medium was discarded and dye was extracted by adding […] DMSO to each well. For cytotoxicity determination using ToxiLight Non-destructive Cytotoxicity Bioassay, hepatocytes were seeded on a 6-well plate and treated with either SR-18292 ([…]) or cisplatin ([…]) for 18 h. […] of medium was collected and used to measure cellular toxicity by adding 100 of adenylate kinase detection reagent (AKDR) and incubating 5 min at RT before measuring luminescence."}, "[1]": {"tested_on": "Pck1 and G6pc gene expression", "test": "Gluconeogenic gene and protein expression in primary hepatocytes (qPCR, western)", "type": "cell-based, mouse", "procedure": "For measurement of acetylation, gene expression and glucose production SR-18292 ([…]) was added to cells overnight and fresh compound was added the following day for additional 3 h before collecting the cells (for total of ˜18 h treatment). Where insulin and glucagon stimulation were performed, the medium was changed to starvation medium (DMEM, 0.2% BSA, 2 mM sodium pyruvate, and 1% penicillin/streptomycin) with fresh compound for the last 3 h and cells were stimulated with either 100 nM insulin or 200 nM glucagon for an extra 1.5 h. For glucose measurements following PGC-1α over expression cells were incubated for the last 3 h in glucose-free medium (phenol-red/glucose free DMEM, 0.2% BSA, 2 mM sodium pyruvate and 20 mM sodium lactate or 10 mM glycerol in case glycerol was used as substrate). For glucose measurements following glucagon stimulation cells were incubated for the last 4 h in the same glucose-free medium that also contained glucagon (200 nM). The glucose level in the medium was measured using a glucose assay kit from Eton Bioscience Inc. by adding […] of assay buffer to […] of medium followed by 15 min incubation at 37° C. Absorbance was measured at 490 nm.\nsiRNA oligos against mouse Ppargc1a were purchased from OriGene (SR420231). Hepatocytes were transfected with a 1:1:1:mixture of 3 unique 27mer siRNA duplexes ([…]) using Lipofectamin RNAiMax (Invitrogen) immediately upon seeding with plating medium. The following morning cells were washed with PBS and medium was changed to maintenance medium. In the afternoon, cells were transfected again and compound treatment started.\nTotal RNA was extracted from cells or pulverized liver using TRIzol reagent (Ambion, Life Technologies), followed by cDNA preparation from 2 μg of total RNA with a High-Capacity cDNA Reverse Transcription Kit (Applied Biosystems). cDNA products were quantified by real-time PCR using Power SYBR Green PCR Master Mix (Applied Biosystems) on a CFX384 Real-Time PCR System (Bio-Rad). To calculate IC50 from C-80 dose response, curves were fit to the hill equation in a similar manner used to calculate estimated AC50 from the high-throughput qPCR screen. However, unlike the curves from the qPCR high-throughput screen, values of relative repression were used rather than of delta-Ct."}}, "note": "Entries after “also recorded” stand apart in the source; their conditions may differ."}
{"smiles": "Cc1ccc(CN(CC(O)COc2cccc3[nH]ccc23)C(C)(C)C)cc1", "note": "(stereo not drawn) [SR-18292, 1-((1H-indol-4-yl)oxy)-3-(tert-butyl(4-methylbenzyl)amino)propan-2-ol]", "values": [{"measurement": "catalytic (HAT) activity of GCN5 immunoprecipitated from treated cells", "setting": "GCN5; U-2 OS cells treated 18 h", "result": "not changed; also recorded: not increased"}, {"measurement": "GCN5 HAT activity on in vitro treatment of IPed GCN5", "setting": "GCN5; in vitro treatment", "result": "did not result in increased activity; also recorded: not affected"}, {"measurement": "hepatocyte toxicity by cell viability or total protein levels", "setting": "primary hepatocytes; 18 h treatment", "result": "did not cause hepatocyte toxicity"}, {"measurement": "total protein levels", "setting": "primary hepatocytes; n=3", "result": "not affected"}, {"measurement": "gene expression after short treatment", "setting": "[1]; 3 hr treatment", "result": "no effect"}, {"measurement": "gluconeogenic gene and protein expression induced by ectopic PGC-1α", "setting": "[1]; Ad-PGC-1α infected hepatocytes", "result": "significantly reduced"}, {"measurement": "glucagon-stimulated Pck1 and G6pc gene expression", "setting": "[1]; glucagon 200 nM", "result": "significantly reduced"}, {"measurement": "PEPCK protein levels", "setting": "[1]; hepatocytes infected with Ad-PGC-1α", "result": "reduced"}, {"measurement": "suppression of Pck1 and G6pc after siRNA knock down of PGC-1α", "setting": "[1]; siRNA against Ppargc1a", "result": "significantly impairs the ability of SR-18292 to suppress Pck1 and G6pc"}]}
